These results are taken from PubChem BioAssay (NCI).

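Where inhibition never reached the appropriate level, the endpoint shown equals the highest concentration tested. Otherwise, values were interpolated linearly from a five-concentration, 48-hour dose response in 96-well plates. The concentration for full growth arrest is given as TGI.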 Bounds are passed on as bounds.

Among the test systems are ACHN renal; CAKI-1 renal; EKVX NSCLC; HCT-15 colon; HOP-62 NSCLC; HOP-92 NSCLC; MALME-3M melanoma; NCI-H226 lung; NCI-H23 lung; NCI-H460 lung; NCI-H522 lung; OVCAR-5 ovarian; SF-268 CNS.
Common to all, as to test: NCI anticancer screen, dose series, 48 h

For the compound `CCOc1ccc(N(CC(=O)N2CC(=O)Nc3cc(C)c(C)cc32)C(C)=O)cc1`, the TGI in the assay on ACHN renal, in the assay with CAKI-1 renal, in the assay with EKVX NSCLC, in the assay on HCT-15 colon, with HOP-62 NSCLC and in the assay with HOP-92 NSCLC was more than 100 µM each time. Further, the TGI with MALME-3M melanoma, in the assay on NCI-H226 lung, in the assay with NCI-H23 lung, in the assay with NCI-H460 lung, in the assay with NCI-H522 lung and in the assay with OVCAR-5 ovarian was more than 100 µM in each case. Also, the TGI in the assay on SF-268 CNS was more than 100 µM.
`CC(=O)NC(CCCNC(=O)N(C)N=O)C(=O)NCc1ccccc1` (stereo not drawn): the TGI in the assay with ACHN renal, with CAKI-1 renal, in the assay on EKVX NSCLC, with HCT-15 colon, in the assay on HOP-62 NSCLC and in the assay with HOP-92 NSCLC was more than 100 µM each time. Also, the TGI with MALME-3M melanoma, in the assay with NCI-H226 lung, in the assay with NCI-H23 lung, in the assay on NCI-H460 lung, in the assay on NCI-H522 lung and in the assay with OVCAR-5 ovarian was more than 100 µM each time. The compound further gave a TGI in the assay with SF-268 CNS of more than 100 µM.
With `O=C1CCC2(c3ccc(Cl)cc3)Nc3ccccc3N12` (stereo not drawn), the TGI in the assay with ACHN renal is more than 100 µM; with EKVX NSCLC, more than 100 µM; with HCT-15 colon, more than 100 µM; with HOP-62 NSCLC, more than 100 µM; with HOP-92 NSCLC it was 90.6 µM; with MALME-3M melanoma, more than 100 µM. For the same compound, the TGI in the assay with NCI-H226 lung, with NCI-H23 lung, with NCI-H460 lung, with NCI-H522 lung, in the assay on OVCAR-5 ovarian and in the assay with SF-268 CNS was more than 100 µM each time.
As for `N#C/C(c1nc2ccccc2[nH]1)=c1\s/c(=C/c2ccccc2)c(=O)n1-c1ccccc1`, the TGI with ACHN renal, with CAKI-1 renal, in the assay on EKVX NSCLC, in the assay with HCT-15 colon, in the assay with HOP-62 NSCLC and with HOP-92 NSCLC was more than 100 µM each time. In addition, the TGI in the assay on MALME-3M melanoma, in the assay with NCI-H226 lung, in the assay with NCI-H23 lung, in the assay on NCI-H460 lung, in the assay with NCI-H522 lung and in the assay on OVCAR-5 ovarian was more than 100 µM in each case. In addition, in the assay with SF-268 CNS, the TGI was more than 100 µM.
`COc1ccc(OC2(c3cc(OC)ccc3OC)OC(=O)c3ccccc32)cc1` (stereo not drawn): the TGI in the assay with ACHN renal, in the assay on CAKI-1 renal, in the assay on EKVX NSCLC, with HCT-15 colon, in the assay with HOP-62 NSCLC and in the assay on HOP-92 NSCLC was more than 100 µM throughout. The TGI in the assay on MALME-3M melanoma, with NCI-H226 lung, with NCI-H23 lung, with NCI-H460 lung, in the assay on NCI-H522 lung and with OVCAR-5 ovarian was more than 100 µM in each case. The same compound yielded a TGI in the assay on SF-268 CNS of more than 100 µM.
Regarding `CC(C)N(C(=O)C12C3C4C5C3C1(C(=O)O)C5C42)C(C)C` (stereo not drawn), the TGI with ACHN renal, in the assay with CAKI-1 renal, in the assay on EKVX NSCLC, in the assay with HCT-15 colon, in the assay on HOP-62 NSCLC and in the assay on HOP-92 NSCLC was more than 100 µM each time. In addition, the TGI in the assay with MALME-3M melanoma, in the assay with NCI-H23 lung, with NCI-H460 lung, in the assay with NCI-H522 lung, in the assay on OVCAR-5 ovarian and with SF-268 CNS was more than 100 µM in each case.
In the case of `Cc1cc(N(CCC#N)CCC#N)ccc1/C=C1N=C(/C=C\c2ccccc2)N(NC(=O)CC(=O)Nc2ccccc2Cl)C\1=O`, the TGI with ACHN renal, in the assay on CAKI-1 renal, in the assay on HCT-15 colon, with HOP-62 NSCLC, with HOP-92 NSCLC and with MALME-3M melanoma was more than 100 µM each time. Further, the TGI in the assay on NCI-H226 lung, in the assay with NCI-H23 lung, with NCI-H460 lung, with NCI-H522 lung, in the assay on OVCAR-5 ovarian and in the assay on SF-268 CNS was more than 100 µM each time.
For the compound `CC(=O)NC(CCCCNCc1ccccc1)C(=O)NCc1ccccc1` (stereo not drawn), the TGI in the assay on ACHN renal, with CAKI-1 renal, in the assay on EKVX NSCLC, in the assay with HCT-15 colon, with HOP-62 NSCLC and in the assay with HOP-92 NSCLC was more than 100 µM in each case. Further, the TGI in the assay on MALME-3M melanoma, in the assay on NCI-H226 lung, in the assay on NCI-H23 lung, with NCI-H460 lung, in the assay with NCI-H522 lung and in the assay with OVCAR-5 ovarian was more than 100 µM in each case. Further, the TGI with SF-268 CNS is more than 100 µM.
Take `N#CC(NNC(=O)Cc1ccccc1)c1ccc([N+](=O)[O-])cc1` (stereo not drawn): the TGI in the assay on ACHN renal, in the assay with HCT-15 colon, with HOP-62 NSCLC, in the assay on HOP-92 NSCLC, with MALME-3M melanoma and in the assay with NCI-H226 lung was more than 100 µM throughout. Also, the TGI with NCI-H23 lung, with NCI-H460 lung, with NCI-H522 lung, in the assay with OVCAR-5 ovarian and in the assay on SF-268 CNS was more than 100 µM each time.
Consider `CCc1cccc(C(C)C)c1NC(=O)/C(=N\NC(N)=O)C(C(=O)OC)c1cnc2ccccc2n1` (stereo not drawn), for which the TGI with ACHN renal was more than 100 µM; in the assay with CAKI-1 renal it was more than 100 µM; in the assay on EKVX NSCLC, more than 100 µM; in the assay on HCT-15 colon it was more than 100 µM; in the assay on HOP-62 NSCLC, more than 100 µM; with MALME-3M melanoma it was 76.4 µM. Further, the TGI with NCI-H226 lung is more than 100 µM; with NCI-H23 lung, 57.5 µM; with NCI-H460 lung it was 80.7 µM; with NCI-H522 lung it was 71.9 µM; in the assay with OVCAR-5 ovarian it was more than 100 µM; with SF-268 CNS, more than 100 µM.
Take `COC(=O)C(Cc1nc2ccc(Cl)cc2[nH]c1=O)C(=O)C(=O)Nc1cc(C)ccc1C` (stereo not drawn): the TGI with ACHN renal, in the assay with CAKI-1 renal, in the assay with EKVX NSCLC, with HCT-15 colon, in the assay on HOP-62 NSCLC and with MALME-3M melanoma was more than 100 µM in each case. Also, the TGI in the assay with NCI-H226 lung, in the assay with NCI-H23 lung, with NCI-H460 lung, in the assay with NCI-H522 lung, in the assay on OVCAR-5 ovarian and with SF-268 CNS was more than 100 µM in each case.
Consider `CC1(O)CC2C(CC1SC1CC3C(CC1(C)O)C3(C)C)C2(C)C` (stereo not drawn), for which the TGI was more than 100 µM in the assay with ACHN renal; 83.9 µM with EKVX NSCLC; more than 100 µM with HCT-15 colon; more than 100 µM in the assay on HOP-92 NSCLC; more than 100 µM with MALME-3M melanoma; more than 100 µM with NCI-H226 lung. In addition, the TGI in the assay with NCI-H23 lung, with NCI-H460 lung, in the assay with OVCAR-5 ovarian and with SF-268 CNS was more than 100 µM each time.
In the case of `Cc1ccc(C(=O)NC2CCCCC2)cc1N=NN(C)C`, the TGI with ACHN renal, with CAKI-1 renal, with EKVX NSCLC, in the assay with HCT-15 colon, in the assay on HOP-62 NSCLC and in the assay with HOP-92 NSCLC was more than 100 µM each time. Moreover, the TGI in the assay on NCI-H23 lung, with NCI-H460 lung, in the assay on NCI-H522 lung and in the assay on SF-268 CNS was more than 100 µM each time.
`CCOC(=O)C(C)NC(=O)NC12CC3CC(CC(F)(C3)C1)C2` (stereo not drawn): the TGI was more than 100 µM in the assay with ACHN renal; more than 100 µM in the assay with EKVX NSCLC; more than 100 µM in the assay on HOP-62 NSCLC; 56.2 µM in the assay with HOP-92 NSCLC; more than 100 µM in the assay on MALME-3M melanoma; more than 100 µM in the assay on NCI-H23 lung. Further, the TGI in the assay with NCI-H460 lung, in the assay with NCI-H522 lung and in the assay on OVCAR-5 ovarian was more than 100 µM throughout.
With `O=C1/C(=C/c2ccccc2Cl)COc2ccc(Br)cc21`, the TGI in the assay on ACHN renal, in the assay with EKVX NSCLC, in the assay on HOP-62 NSCLC, in the assay on HOP-92 NSCLC, in the assay with MALME-3M melanoma and in the assay with NCI-H23 lung was more than 100 µM each time. Moreover, the TGI was more than 100 µM in the assay with NCI-H460 lung, 80.1 µM in the assay on NCI-H522 lung, more than 100 µM in the assay with OVCAR-5 ovarian and more than 100 µM in the assay with SF-268 CNS.
With `CC(=O)OCC12CC(CC1OC(C)=O)c1ccccc12` (stereo not drawn), the TGI in the assay with ACHN renal, in the assay with CAKI-1 renal, with HCT-15 colon, in the assay with HOP-62 NSCLC, with HOP-92 NSCLC and in the assay with MALME-3M melanoma was more than 100 µM in each case. Further, the TGI with NCI-H226 lung, in the assay on NCI-H23 lung, with NCI-H460 lung, in the assay on OVCAR-5 ovarian and in the assay on SF-268 CNS was more than 100 µM each time.
Consider `Cc1ccc(NC(=O)C2C3C=CC(O3)C2C(=O)O)cc1` (stereo not drawn), for which the TGI in the assay with ACHN renal, in the assay with EKVX NSCLC, in the assay on HCT-15 colon, in the assay with HOP-62 NSCLC, in the assay with HOP-92 NSCLC and with MALME-3M melanoma was more than 100 µM in each case. Also, the TGI in the assay on NCI-H226 lung, in the assay on NCI-H23 lung, in the assay with NCI-H460 lung, with NCI-H522 lung, in the assay with OVCAR-5 ovarian and with SF-268 CNS was more than 100 µM in each case.
